Where a SMILES comes first, the peptide text is derived from it. Bridges are numbered along the chain shown (N, C = ends). Where no end group is shown, it is not given here.
B1: Wnt3a: Wnt3a protein, positive control of the Wnt signaling pathway (protein, UniProt P56704 19-352, looked up)
Protein Wnt-3a: SYPIWWSLAVGPQYSSLGSQPILCASIPGLVPKQLRFCRNYVEIMPSVAEGIKIGIQECQHQFRGRRWNCTTVHDSLAIFGPVLDKATRESAFVHAIASAGVAFAVTRSCAEGTAAICGCSSRHQGSPGKGWKWGGCSEDIEFGGMVSREFADARENRPDARSAMNRHNNEAGRQAIASHMHLKCKCHGLSGSCEVKTCWWSQPDFRAIGDFLKDKYDSASEMVVEKHRESRGWVETLRPRYTYFKVPTERDLVYYEASPNFCEPNPETGSFGTRDRTCNVSSHGIDGCDLLCCGRGHNARAERRREKCRCVFHWCCYVSCQECTRVYDVHTCK
B2: Wnt5a: Wnt5a, effective ligand for non-canonical Wnt signaling pathway, positive control (protein, UniProt P41221 62-380, looked up)
Protein Wnt-5a: IIGAQPLCSQLAGLSQGQKKLCHLYQDHMQYIGEGAKTGIKECQYQFRHRRWNCSTVDNTSVFGRVMQIGSRETAFTYAVSAAGVVNAMSRACREGELSTCGCSRAARPKDLPRDWLWGGCGDNIDYGYRFAKEFVDARERERIHAKGSYESARILMNLHNNEAGRRTVYNLADVACKCHGVSGSCSLKTCWLQLADFRKVGDALKEKYDSAAAMRLNSRGKLVQVNSRFNSPTTQDLVYIDPSPDYCVRNESTGSLGTQGRLCNKTSEGMDGCELMCCGRGYDQFKTVQTERCHCKFHWCCYVKCKKCTEIVDQFVCK

Key:
Format in all cases: cell-based, human
[1] = system: SW480; experiment: Annexin V/PI flow cytometry apoptosis assay; details: 24 hours, p<0.05; for cell death compared with HUVEC cell line: SW480, 1 mM; for cell death of SW480 compared with HCT116 cell line: 1 mM
Description: (§1) In this example, the apoptotic effect of exemplary peptides on cancer cells was examined by analyzing the number of apoptotic cells in HCT116 and SW480 and HUVEC cell lines before and after treatment with 1 mM of each exemplary peptide for 24 hours. Annexin V and propidium iodide (PI) staining were used to evaluate the apoptosis induced by treatment with exemplary peptides in each cell line. Stained cells may be counted by flow cytometry to calculate the percentage of apoptosis (Annexin V positive and PI negative) and necrosis percentage (Annexin V positive and […]) for each cell line.
(§2) The percentage of Annexin V positive and PI negative cells were considered early apoptosis, and the percentage of both Annexin positive and PI-positive cells was considered late apoptosis and necrosis. The sum of these two groups of cells was considered as the cell death rate.

[2] = system: HCT116; experiment: Annexin V/PI flow cytometry apoptosis assay; details: 24 hours, p<0.05; for cell death compared with HUVEC cell line: HCT116, 1 mM
Description: as §1, §2

[3] = system: Wnt signaling pathway, SW480 cell line; experiment: Real-time PCR of LRP6 and downstream genes of the Wnt signaling pathway; details: treated against untreated
Description: (§3) In this example, the effect of exemplary peptides on the expression of LRP6 and downstream genes of the Wnt signaling pathway, such as β-catenin, cyclin D1, and C-MYC, was evaluated at transcription level using real-time PCR and at translation level using Western blotting. The Gapdh gene was used as the reference gene. The expression fold change of more than 2 times (treated cell against untreated cell) was defined as increasing expression, and cases with a fold change of 0.5 to 2 were unchanged, and cases with expression fold change less than 0.5 were considered as a reduction in expression.

[4] = system: Wnt signaling pathway, HUVEC cell line; experiment: as above; details: treated against untreated
Description: as §3

[5] = system: Wnt signaling pathway, HCT116 cell line; experiment: as above; details: treated against untreated
Description: as §3

[6] = system: Wnt signaling pathway, SW480 cell line; experiment: Western blotting of LRP6 and β-catenin proteins with signal densitometry; details: SW480, Western blot signal densitometry
Description: as §3
(§4) Also, the effect of exemplary peptides on the levels of LRP6 and β-catenin proteins in the β-catenin/Wnt signaling pathway was investigated by Western blotting. Also, each protein's relative expression was determined through signal densitometry of each Western blot band.

[7] = system: Wnt signaling pathway, HCT116 cell line; experiment: as above; details: HCT116, Western blot signal densitometry
Description: as §3, §4

[8] = system: Wnt signaling pathway, HUVEC cell line; experiment: as above; details: Western blot signal densitometry
Description: as §3
Also, the effect of exemplary peptides on the levels of LRP6 and β-catenin proteins in the β-catenin/Wnt signaling pathway was investigated by Western blotting. Also, each protein's relative expression was determined through signal densitometry of each Western blot band. FIG. 11A illustrates relative expression β-actin, β-catenin, and LRP6 in SW480, HCT116, and HUVEC cell lines, consistent with one or more exemplary embodiments of the present disclosure. Referring to FIG. 11A, the relative expressions of β-catenin and LRP6 in SW480 and HCT116 were higher than HUVEC as a normal cell.

[9] = system: SW480; experiment: Cell cycle analysis by flow cytometry (DNA content); details: SW480, 24 hours
Description: (§5) In this example, the effect of exemplary peptides on the cell cycle was determined through flow cytometry and measurement of DNA content in cells. In this experiment, HCT116, SW480, and HUVEC cell lines were cultured in 24-well plates and treated with 1 mM of each exemplary peptide for 24 hours.
(§6) The cell proliferation index may be calculated by dividing the percentage of cells present in the S and G2 stages by the percentage of cells in the G1, S, and G2 stages. […] Also, the proliferation index in SW480 and HCT116 cell lines decreased after treatment with exemplary peptides (SEQ ID NOs: 1-4). On the other hand, the decrease in the proliferation index of HUVEC cells was smaller than that of SW480 and HCT116 cell lines.

[10] = system: HUVEC; experiment: as above; details: 24 hours
Description: as §5, §6

[11] = system: HCT116; experiment: as above; details: HCT116, 24 hours
Description: as §5, §6

Molecule	cell death compared with HUVEC cell line [1]	cell death compared with HUVEC cell line [2]	expression of C-MYC gene [3]	expression of LRP6 gene [3]	expression of cyclin D1 gene [3]	expression of β-catenin gene [3]	expression of C-MYC gene [4]	expression of LRP6 gene [4]	expression of cyclin D1 gene [4]	expression of β-catenin gene [4]	expression of C-MYC gene [5]	expression of LRP6 gene [5]	expression of cyclin D1 gene [5]	expression of β-catenin gene [5]	decrease of β-catenin protein level [6]	decrease of β-catenin protein level [7]	cell death of SW480 compared with HCT116 cell line [1]	effect on β-catenin protein content [8]	other results
CC[C@H](C)[C@H](NC(=O)[C@H](CCC(=O)O)NC(=O)[C@H](CC(C)C)NC(=O)CNC(=O)[C@H](Cc1c[nH]cn1)NC(=O)[C@H](CO)NC(=O)CNC(=O)[C@H](CCCCN)NC(=O)[C@H](CCCNC(=N)N)NC(=O)[C@H](CCCNC(=N)N)NC(=O)[C@H](Cc1c[nH]cn1)NC(=O)[C@H](CCCCN)NC(=O)[C@@H](NC(=O)[C@H](CS)NC(=O)[C@@H](NC(=O)[C@@H](N)CCC(N)=O)C(C)C)[C@@H](C)O)C(=O)N[C@@H](Cc1ccccc1)C(=O)N[C@@H](CCC(N)=O)C(=O)N[C@@H](CCCNC(=N)N)C(=O)N[C@@H](CS)C(=O)N[C@@H](Cc1ccc(O)cc1)C(=O)O [Pep-2] (H-QVCTKHRRKGSHGLEIFQRCY-OH; N-terminus and C-terminus assumed)	significantly higher	significantly higher	reduced	did not change	reduced	reduced	did not change	did not change	did not change	did not change	reduced	did not change	reduced	reduced	20%	20%	–	–	cell death rate of HCT116 compared with SW480 ([2]; 1 mM): significantly higher
CC[C@H](C)[C@@H]1NC(=O)[C@H](CCCCN)NC(=O)[C@H](CO)NC(=O)[C@H](Cc2c[nH]c3ccccc23)NC(=O)[C@H](Cc2ccccc2)NC(=O)[C@H](Cc2c[nH]cn2)NC(=O)[C@H](CCCNC(=N)N)NC(=O)[C@H](C)NC(=O)[C@H](CS)NC(=O)[C@@H](N)CSSC[C@@H](C(=O)O)NC1=O [Pep-4] (H-CCARHFWSKIC-OH; disulfide 1-11)	significantly higher	–	reduced	did not change	reduced	reduced	have not changed	have not changed	have not changed	have not changed	reduced	did not change	reduced	reduced	20%	20%	significantly higher	–	–
NGYITFQDGNDYFRFPLNN [Pep-3]	–	–	did not change	did not change	did not change	did not change	did not change	did not change	did not change	did not change	did not change	did not change	did not change	did not change	no significant effect	no significant effect	–	no significant effect	–
NSSSLSSGSGNNANGNFLTYY [Pep-1]	significantly higher	significantly higher	did not change	did not change	did not change	did not change	did not change	did not change	did not change	did not change	did not change	did not change	did not change	did not change	no significant effect	no significant effect	significantly higher	no significant effect	–
B1	–	–	increasing	increasing	increasing	increasing	did not change	did not change	did not change	did not change	increasing	increasing	increasing	increasing	–	–	–	–	S and G2/M stage percentage [9]: higher percentage; S and G2/M stage percentage [10]: higher percentage; S and G2/M stage percentage [11]: higher percentage
B2	–	–	did not change	did not change	did not change	did not change	did not change	did not change	did not change	did not change	did not change	did not change	did not change	did not change	–	–	–	–	–
